# Measurements: publication PMC5297703, “R-Flurbiprofen Traps Prostaglandins within Cells by Inhibition of Multidrug Resistance-Associated Protein-4” (International Journal of Molecular Sciences, 2016)
# pIC50: −log10 of the molar value.
# Molecular target: T1, cPLA2α (Homo sapiens, UniProt P47712)
# T1 construct: gene PLA2G4A; recombinant, isolated from Sf9 insect cells
# T1 sequence (P47712 1-749): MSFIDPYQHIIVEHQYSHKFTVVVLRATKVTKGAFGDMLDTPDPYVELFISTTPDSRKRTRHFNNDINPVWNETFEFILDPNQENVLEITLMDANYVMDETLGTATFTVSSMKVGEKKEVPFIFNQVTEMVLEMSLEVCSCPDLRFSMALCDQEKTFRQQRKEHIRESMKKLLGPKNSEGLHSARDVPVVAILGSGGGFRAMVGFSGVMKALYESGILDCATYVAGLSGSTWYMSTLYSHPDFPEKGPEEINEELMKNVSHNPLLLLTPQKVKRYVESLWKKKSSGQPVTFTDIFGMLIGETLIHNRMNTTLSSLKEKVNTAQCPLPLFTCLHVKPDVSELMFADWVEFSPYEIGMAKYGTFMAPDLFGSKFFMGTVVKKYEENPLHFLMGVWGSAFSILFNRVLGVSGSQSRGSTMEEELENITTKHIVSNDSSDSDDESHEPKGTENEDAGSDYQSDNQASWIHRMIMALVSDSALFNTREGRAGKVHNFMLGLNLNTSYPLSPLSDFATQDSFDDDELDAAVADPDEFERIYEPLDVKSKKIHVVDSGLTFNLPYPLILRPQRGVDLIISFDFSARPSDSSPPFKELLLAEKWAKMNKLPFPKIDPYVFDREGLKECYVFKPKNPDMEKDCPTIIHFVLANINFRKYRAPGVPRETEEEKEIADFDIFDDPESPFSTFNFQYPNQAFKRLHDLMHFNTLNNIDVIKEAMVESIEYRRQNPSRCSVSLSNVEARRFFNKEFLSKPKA
# Assay: cPLA2α activity assay with PAPC/POG vesicles, arachidonic acid by LC-MS/MS
# Type: biochemical
structure (smiles),measurement,value
C[C@@H](C(=O)O)c1ccc(-c2ccccc2)c(F)c1 [R-flurbiprofen],pIC50,3.69
